Data from US11554171B2, “Compounds and methods for the targeted degradation of bromodomain-containing proteins” (Arvinas Operations, Inc., priority 2015, dated 2023).

Tested on: c-myc in 22RV-1 cells
Test: Human c-myc ELISA assay
Type: cell-based
Details: Homo sapiens; for Emax: 22Rv1, 18 h, read-out: Degradation of BRD4: Maximum inhibition (%) c-Myc ELISA in 22RV1 cells; for DC50: 22Rv1, read-out: Degradation of BRD4: DC50 (uM) c-Myc ELISA in 22RV1 cells
Outline: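 22RV-1 cells treated 18 h with 8-point 1:3 compound dilutions (final top 300 nM or 1 μM, 0.1% DMSO). Cells lysed in RIPA buffer with protease/phosphatase inhibitors, and c-myc protein in cleared lysate quantified by ELISA against a standard curve. DC50 reported for c-myc suppression.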

Row | SMILES | Emax | DC50
1 | Cc1ncsc1-c1ccc([C@H](C)NC(=O)[C@@H]2C[C@@H](O)CN2C(=O)[C@@H](NC(=O)CCc2ccnc(O[C@H]3C[C@@H](NC(=O)C[C@@H]4N=C(c5ccc(Cl)cc5)c5c(sc(C)c5C)-n5c(C)nnc54)C3)c2)C(C)(C)C)cc1 [Example 191] | 95% | < 0.01 µM
2 | Cc1ncsc1-c1ccc(CNC(=O)[C@@H]2C[C@@H](O)CN2C(=O)[C@@H](NC(=O)COCCOCCOCCCCOc2ccc(NC(=O)C[C@@H]3N=C(c4ccc(Cl)cc4)c4c(sc(C)c4C)-n4c(C)nnc43)cc2)C(C)(C)C)cc1 [Example 14] | 100% | 0.01 to 0.1 µM
3 | Cc1ncsc1-c1ccc(CNC(=O)[C@@H]2C[C@@H](O)CN2C(=O)[C@@H](NC(=O)COCCCOCCOc2ccc3c(c2)c2c(C(N)=O)cc(-c4c(C)noc4C)cc2n3Cc2ccccc2)C(C)(C)C)cc1 [Example 116, 9-benzyl-2-(dimethyl-1,2-oxazol-4-yl)-6-{2-[3-({[(2S)-1-[(2S,4R)-4-hydroxy-2-({[4-(4-methyl-1,3-thiazol-5-yl)phenyl]methyl}carbamoyl)pyrrolidin-1-yl]-3,3-dimethyl-1-oxobutan-2-yl]carbamoyl}methoxy)propoxy]ethoxy}-9H-carbazole-4-carboxamide] | 100% | 0.01 to 0.1 µM
4 | Cc1ncsc1-c1ccc([C@H](C)NC(=O)[C@@H]2C[C@@H](O)CN2C(=O)[C@@H](NC(=O)CN2CCC(C(=O)N3CCN(C(=O)C[C@@H]4N=C(c5ccc(Cl)cc5)c5c(sc(C)c5C)-n5c(C)nnc54)CC3)CC2)C(C)(C)C)cc1 [Example 334] | 97% | < 0.01 µM
5 | Cc1ncsc1-c1ccc([C@H](C)NC(=O)[C@@H]2C[C@@H](OC(=O)CC(C)(C)N)CN2C(=O)[C@@H](NC(=O)c2cc3cc(O[C@H]4C[C@@H](NC(=O)C[C@@H]5N=C(c6ccc(Cl)cc6)c6c(sc(C)c6C)-n6c(C)nnc65)C4)ccc3o2)C(C)(C)C)cc1 [Example 343] | 87% | 0.01 to 0.1 µM
6 | Cc1ncsc1-c1ccc(CNC(=O)[C@@H]2C[C@@H](O)CN2C(=O)[C@@H](NC(=O)COCCCOCCNC(=O)C[C@H]2N=C(c3ccc(Cl)cc3)c3c(sc(C)c3C)-n3c(C)nnc32)C(C)(C)C)cc1 [Example 106] | < 5% | > 1 µM
7 | Cc1ncsc1-c1ccc(CNC(=O)[C@@H]2C[C@@H](O)CN2C(=O)[C@@H](C(C)C)n2cc(-c3cccc(O[C@@H](C)CNC(=O)C[C@@H]4N=C(c5ccc(Cl)cc5)c5c(sc(C)c5C)-n5c(C)nnc54)c3)cn2)cc1 [Example 198] | 16% | > 1 µM
8 | Cc1ncsc1-c1ccc([C@H](C)NC(=O)[C@@H]2C[C@@H](OC(=O)CCCN)CN2C(=O)[C@@H](NC(=O)c2cc3cc(O[C@H]4C[C@@H](NC(=O)C[C@@H]5N=C(c6ccc(Cl)cc6)c6c(sc(C)c6C)-n6c(C)nnc65)C4)ccc3o2)C(C)(C)C)cc1 [Example 344] | 95.9% | 0.01 to 0.1 µM
9 | Cc1sc2c(c1C)C(c1ccc(Cl)cc1)=N[C@@H](CC(=O)N[C@H]1C[C@@H](Oc3ccc4oc(C(=O)N[C@H](C(=O)N5C[C@H](O)C[C@H]5C(=O)N[C@@H](C)c5ccc(-c6scnc6CO)cc5)C(C)(C)C)cc4c3)C1)c1nnc(C)n1-2 [Example 342, (2S,4R)-1-[(2S)-3,3-dimethyl-2-({5-[(1,3-cis)-3-{2-[(9S)-7-(4-chlorophenyl)-4,5,13-trimethyl-3-thia-1,8,11,12-tetraazatricyclo[8.3.0.0^2,^6]trideca-2(6),4,7,10,12-pentaen-9-yl]acetamido}cyclobutoxy]-1-benzofuran-2-yl}formamido)butanoyl]-4-hydroxy-N-[(1S)-1-{4-[4-(hydroxymethyl)-1,3-thiazol-5-yl]phenyl}ethyl]pyrrolidine-2-carboxamide] | 100% | < 0.01 µM
10 | Cc1ncsc1-c1ccc([C@H](C)NC(=O)[C@@H]2C[C@@H](O)CN2C(=O)[C@@H](NC(=O)COCCOCCCOc2ccc([C@@H](C)NC(=O)C[C@@H]3N=C(c4ccc(Cl)cc4)c4c(sc(C)c4C)-n4c(C)nnc43)cc2)C(C)(C)C)cc1 [Example 30] | 96% | 0.01 to 0.1 µM
11 | Cc1ncsc1-c1ccc(CNC(=O)[C@@H]2C[C@@H](O)CN2C(=O)[C@@H](NC(=O)COCCOCCOCCOc2ccc3c(c2)c2c(C(N)=O)cc(-c4c(C)noc4C)cc2n3Cc2ccccc2)C(C)(C)C)cc1 [Example 83] | 98% | 0.01 to 0.1 µM
12 | Cc1cc(C(C(=O)N2C[C@H](O)C[C@H]2C(=O)NCc2ccc(Cl)cc2OCCOCCOCCOCCNC(=O)C[C@@H]2N=C(c3ccc(Cl)cc3)c3c(sc(C)c3C)-n3c(C)nnc32)C(C)C)on1 (stereo partly shown) [Example 361] | 100% | 0.01 to 0.1 µM
13 | Cc1ncsc1-c1ccc([C@H](C)NC(=O)[C@@H]2C[C@@H](O)CN2C(=O)[C@H](C(C)C)n2cc(-c3cc(O[C@H]4C[C@H](NC(=O)C[C@@H]5N=C(c6ccc(Cl)cc6)c6c(sc(C)c6C)-n6c(C)nnc65)C4)ccn3)cn2)cc1 [Example 304] | 95% | 0.01 to 0.1 µM
14 | Cc1ncsc1-c1ccc([C@H](C)NC(=O)[C@@H]2C[C@@H](O)CN2C(=O)[C@@H](NC(=O)c2cc3cc(O[C@H]4C[C@H](NC(=O)C[C@@H]5N=C(c6ccc(Cl)cc6)c6c(sc(C)c6C)-n6c(C)nnc65)C4)ccc3o2)C(C)(C)C)cc1 [Example 207, (2S,4R)-1-[(2S)-3,3-dimethyl-2-({5-[(1,3trans)-3-{2-[(9S)-7-(4-chlorophenyl)-4,5,13-trimethyl-3-thia-1,8,11,12-tetraazatricyclo[8.3.0.0^2,^6]trideca-2(6),4,7,10,12-pentaen-9-yl]acetamido}cyclobutoxy]-1-benzofuran-2-yl}formamido)butanoyl]-4-hydroxy-N-[(1S)-1-[4-(4-methyl-1,3-thiazol-5-yl)phenyl]ethyl]pyrrolidine-2-carboxamide] | 89.5% | < 0.01 µM
15 | Cc1ncsc1-c1ccc(CNC(=O)[C@@H]2C[C@@H](O)CN2C(=O)[C@@H](NC(=O)Cc2ccc(OCCNC(=O)C[C@@H]3N=C(c4ccc(Cl)cc4)c4c(sc(C)c4C)-n4c(C)nnc43)cn2)C(C)(C)C)cc1 [Example 92] | 91.1% | 0.1 to 1 µM
16 | Cc1ncsc1-c1ccc([C@H](C)NC(=O)[C@@H]2C[C@@H](O)CN2C(=O)[C@@H](NC(=O)Cc2ccc(O[C@H]3C[C@@H](NC(=O)C[C@@H]4N=C(c5ccc(Cl)cc5)c5c(sc(C)c5C)-n5c(C)nnc54)C3)nc2)C(C)(C)C)cc1 [Example 270, (2S,4R)-1-[(2S)-3,3-dimethyl-2-(2-{6-[(1,3cis)-3-{2-[(9S)-7-(4-chlorophenyl)-4,5,13-trimethyl-3-thia-1,8,11,12-tetraazatricyclo[8.3.0.0^2,^6]trideca-2(6),4,7,10,12-pentaen-9-yl]acetamido}cyclobutoxy]pyridin-3-yl}acetamido)butanoyl]-4-hydroxy-N-[(1S)-1-[4-(4-methyl-1,3-thiazol-5-yl)phenyl]ethyl]pyrrolidine-2-carboxamide] | 92.2% | < 0.01 µM
17 | Cc1ncsc1-c1ccc([C@H](C)NC(=O)[C@@H]2C[C@@H](O)CN2C(=O)[C@@H](NC(=O)COc2ccc(N3CC(NC(=O)C[C@@H]4N=C(c5ccc(Cl)cc5)c5c(sc(C)c5C)-n5c(C)nnc54)C3)nc2)C(C)(C)C)cc1 [Example 251, (2S,4R)-1-[(2S)-2-(2-{[6-(3-{2-[(9S)-7-(4-chlorophenyl)-4,5,13-trimethyl-3-thia-1,8,11,12-tetraazatricyclo[8.3.0.0^2,^6]trideca-2(6),4,7,10,12-pentaen-9-yl]acetamido}azetidin-1-yl)pyridin-3-yl]oxy}acetamido)-3,3-dimethylbutanoyl]-4-hydroxy-N-[(1S)-1-[4-(4-methyl-1,3-thiazol-5-yl)phenyl]ethyl]pyrrolidine-2-carboxamide] | 92.3% | < 0.01 µM
18 | Cc1ncsc1-c1ccc(CNC(=O)[C@@H]2C[C@@H](O)CN2C(=O)C(c2cc(OCCCCCNC(=O)C[C@@H]3N=C(c4ccc(Cl)cc4)c4c(sc(C)c4C)-n4c(C)nnc43)no2)C(C)C)cc1 (stereo partly shown) [Example 90] | 100% | < 0.01 µM
19 | Cc1ncsc1-c1ccc([C@H](C)NC(=O)[C@@H]2C[C@@H](O)CN2C(=O)[C@H](C(C)C)n2cc(-c3ccc(O[C@H]4C[C@H](NC(=O)C[C@@H]5N=C(c6ccc(Cl)cc6)c6c(sc(C)c6C)-n6c(C)nnc65)C4)nc3)cn2)cc1 [Example 269] | 96.4% | < 0.01 µM
20 | Cc1sc2c(c1C)C(c1ccc(Cl)cc1)=N[C@@H](CC(=O)N[C@H]1C[C@@H](Oc3cc(-c4cnn([C@H](C(=O)N5C[C@H](O)C[C@H]5C(=O)N[C@@H](C)c5ccc(-n6ccnc6C)cc5)C(C)C)c4)ccn3)C1)c1nnc(C)n1-2 [Example 289] | 93.8% | 0.1 to 1 µM
21 | Cc1ncsc1-c1ccc([C@H](C)NC(=O)[C@@H]2C[C@@H](O)CN2C(=O)[C@@H](NC(=O)Cc2ccc(O[C@H]3C[C@H](NC(=O)C[C@@H]4N=C(c5ccc(Cl)cc5)c5c(sc(C)c5C)-n5c(C)nnc54)C3)cc2)C(C)(C)C)cc1 [Example 193, (2S,4R)-1-[(2S)-3,3-dimethyl-2-(2-{4-[(1,3trans)-3-{2-[(9S)-7-(4-chlorophenyl)-4,5,13-trimethyl-3-thia-1,8,11,12-tetraazatricyclo[8.3.0.0^2,^6]trideca-2(6),4,7,10,12-pentaen-9-yl]acetamido}cyclobutoxy]phenyl}acetamido)butanoyl]-4-hydroxy-N-[(1S)-1-[4-(4-methyl-1,3-thiazol-5-yl)phenyl]ethyl]pyrrolidine-2-carboxamide] | 100% | < 0.01 µM
22 | Cc1ncsc1-c1ccc(CNC(=O)[C@@H]2C[C@@H](O)CN2C(=O)[C@@H](NC(=O)COCc2ccc(Oc3cccc(NC(=O)C[C@@H]4N=C(c5ccc(Cl)cc5)c5c(sc(C)c5C)-n5c(C)nnc54)c3)cc2)C(C)(C)C)cc1 [Example 95] | 99.5% | < 0.01 µM
23 | Cc1ncsc1-c1ccc([C@H](C)NC(=O)[C@@H]2C[C@@H](O)CN2C(=O)[C@@H](NC(=O)[C@H](C)OCCCOCCNC(=O)C[C@@H]2N=C(c3ccc(Cl)cc3)c3c(sc(C)c3C)-n3c(C)nnc32)C(C)(C)C)cc1 [Example 153] | 92% | < 0.01 µM
